Reference: publication PMC7051966, “Substrate Specific Inhibitor Designed against the Immunomodulator GMF-beta Reversed the Experimental Autoimmune Encephalomyelitis” (Scientific Reports, 2020)

Target: T1, hGMF-β (human glia maturation factor-β) (Homo sapiens, UniProt P60983)
T1 construct: gene GMFB; amine-coupled to CM5 chip
Assay: SPR (Biacore T200), GMF-β immobilised on CM5 chip, […] fit
Type: binding

T1 sequence (P60983 2-142): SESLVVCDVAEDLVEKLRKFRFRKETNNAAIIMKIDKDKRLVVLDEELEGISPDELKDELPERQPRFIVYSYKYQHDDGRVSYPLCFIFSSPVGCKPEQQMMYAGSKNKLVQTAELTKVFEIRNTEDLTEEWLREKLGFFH

Kd: 20 µM
SMILES: OCc1cccc2[nH]ncc12 [II, 1-H-indazole-4yl methanol]
